# Reference: patent US8859549B2, “Potassium channel modulators” (AbbVie, Inc., priority 2011, dated 2014)
# pEC50: −log10 of the molar value.
# Target: T1, KCNQ 2/3 channels (Homo sapiens, UniProt O43525+O43526)
# T1 construct: expressed in transfected cells; host or cells: HEK293
# Assay: KCNQ 2/3 channel activation, thallium flux FLIPR assay (BTC-AM dye)
# Assay type: cell-based
# Conditions: for Emax: HEK293, maximum response relative to the response of 10 μM retigabine (set at 100%), HEK293 KCNQ2/KCNQ3 cells, read-out: % MAX; for pEC50: HEK293 cells stably expressing human KCNQ2 and KCNQ3 subunits, thallium-induced fluorescence, 4 min compound incubation
# Outline: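 HEK293 cells stably expressing human KCNQ2/KCNQ3 were loaded with BTC-AM (3 μg/mL, 2 h, RT) and preincubated with compound for 4 min in pH 7.3 gluconate buffer containing 0.1 mM ouabain. Flux was triggered by 6 mM TlNO3/10 mM K2SO4 and read for 3 min; EC50 came from summed responses over basal, with maximum relative to 10 μM retigabine (100%).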
Structure (SMILES),Emax [%],pEC50
"CC(C)(C)OC(=O)NCc1nn(NC(=O)Cc2ccc(C(F)(F)F)cc2)c(=O)c2ccccc12 [Example 118, tert-butyl{[4-oxo-3-({[4-(trifluoromethyl)phenyl]acetyl}amino)-3,4-dihydrophthalazin-1-yl]methyl}carbamate]",40.7,5.55
"O=C(Cc1ccc(Cl)cc1)Nn1nc(N2CCSCC2)c2ccccc2c1=O [Example 91, 2-(4-chlorophenyl)-N-[1-oxo-4-(thiomorpholin-4-yl)phthalazin-2(1H)-yl]acetamide]",164,6.04
"CS(=O)(=O)c1ccc(CC(=O)Nn2nc(S(=O)(=O)c3ccccc3)c3ccccc3c2=O)cc1 [Example 189, 2-[4-(methylsulfonyl)phenyl]-N-[1-oxo-4-(phenylsulfonyl)phthalazin-2(1H)-yl]acetamide]",37,–
"O=C(Cc1ccc(Cl)cc1)Nn1nc(-c2ccnc(Cl)c2)c2ccccc2c1=O [Example 49, 2-(4-chlorophenyl)-N-[4-(2-chloropyridin-4-yl)-1-oxophthalazin-2(1H)-yl]acetamide]",107,6.42
"O=C(CC1CCOC1)Nn1nc(-c2ccnc(Cl)c2)c2ccccc2c1=O (stereo not drawn) [Example 67, N-[4-(2-chloropyridin-4-yl)-1-oxophthalazin-2(1H)-yl]-2-(tetrahydrofuran-3-yl)acetamide]",6.78,–
"O=C(Cc1ccc(Cl)cc1)Nn1nc(CNC(=O)OCc2ccccc2)c2ccccc2c1=O [Example 188, benzyl[(3-{[(4-chlorophenyl)acetyl]amino}-4-oxo-3,4-dihydrophthalazin-1-yl)methyl]carbamate]",15.3,–
"Cc1ccsc1-c1nn(NC(=O)Cc2ccc(Cl)cc2)c(=O)c2ccccc12 [Example 15, 2-(4-chlorophenyl)-N-[4-(3-methylthiophen-2-yl)-1-oxophthalazin-2(1H)-yl]acetamide]",124,6.07
"Cc1ccccc1CC(=O)Nn1nc(N2CCOCC2)c2ccccc2c1=O [Example 139, 2-(2-methylphenyl)-N-[4-(morpholin-4-yl)-1-oxophthalazin-2(1H)-yl]acetamide]",-1.4,–
"O=C(CC1CC2CCC1C2)Nn1nc(N2CCCC2)c2ccccc2c1=O (racemic) [Example 23, (±)-2-[(exo)-bicyclo[2.2.1]hept-2-yl]-N-[1-oxo-4-(pyrrolidin-1-yl)phthalazin-2(1H)-yl]acetamide]",147,7.20
"O=C(CC1CC2CCC1C2)Nn1nc(Oc2ccccc2)c2ccccc2c1=O (racemic) [Example 39, (±)-2-[(exo)-bicyclo[2.2.1]hept-2-yl]-N-(1-oxo-4-phenoxyphthalazin-2(1H)-yl)acetamide]",150,8.04
"O=C(Cc1cc(F)cc(F)c1)Nn1nc(Sc2ccc(Br)cc2)c2ccccc2c1=O [Example 197, N-{4-[(4-bromophenyl)sulfanyl]-1-oxophthalazin-2(1H)-yl}-2-(3,5-difluorophenyl)acetamide]",120,7.31
"O=C(Cc1ccc(Cl)cc1)Nn1nc(-c2cccs2)c2ccccc2c1=O [Example 11, 2-(4-chlorophenyl)-N-[1-oxo-4-(thiophen-2-yl)phthalazin-2(1H)-yl]acetamide]",105,6.53
"O=C(Cc1cccc(F)c1)Nn1nc(N2CCOCC2)c2ccccc2c1=O [Example 149, 2-(3-fluorophenyl)-N-[4-(morpholin-4-yl)-1-oxophthalazin-2(1H)-yl]acetamide]",82.7,5.28
"O=C(CC1CC2CCC1C2)Nn1nc(-c2ccc(F)nc2)c2ccccc2c1=O (racemic) [Example 54, (±)-2-[(exo)-bicyclo[2.2.1]hept-2-yl]-N-[4-(6-fluoropyridin-3-yl)-1-oxophthalazin-2(1H)-yl]acetamide]",183,6.39
"CC1CN(c2nn(NC(=O)Cc3ccc(Cl)cc3)c(=O)c3ccccc23)CC(C)O1 (stereo not drawn) [Example 62, 2-(4-chlorophenyl)-N-[4-(2,6-dimethylmorpholin-4-yl)-1-oxophthalazin-2(1H)-yl]acetamide]",85.8,6.43
"CN(C)c1ccc(-c2nn(NC(=O)CC3CC4CCC3C4)c(=O)c3ccccc23)cn1 (racemic) [Example 47, (±)-2-[(exo)-bicyclo[2.2.1]hept-2-yl]-N-{4-[6-(dimethylamino)pyridin-3-yl]-1-oxophthalazin-2(1H)-yl}acetamide]",122,6.42
"O=C(Cc1cc(F)cc(F)c1)Nn1nc(Cc2ccc(Cl)nc2)c2ccccc2c1=O [Example 31, N-{4-[(6-chloropyridin-3-yl)methyl]-1-oxophthalazin-2(1H)-yl}-2-(3,5-difluorophenyl)acetamide]",72.1,6.48
"O=C(O)Cc1nn(NC(=O)Cc2ccc(Cl)cc2)c(=O)c2ccccc12 [Example 114, (3-{[(4-chlorophenyl)acetyl]amino}-4-oxo-3,4-dihydrophthalazin-1-yl)acetic acid]",3.72,–
"CN(Cc1ccccc1)c1nn(NC(=O)CC(C)(C)c2ccccc2)c(=O)c2ccccc12 [Example 52, N-{4-[benzyl(methyl)amino]-1-oxophthalazin-2(1H)-yl}-3-methyl-3-phenylbutanamide]",185,6.99
"CC(C)COC(=O)NCc1nn(NC(=O)Cc2ccc(Cl)cc2)c(=O)c2ccccc12 [Example 185, 2-methylpropyl[(3-{[(4-chlorophenyl)acetyl]amino}-4-oxo-3,4-dihydrophthalazin-1-yl)methyl]carbamate]",44.6,5.91
"COc1ccc(CC(=O)Nn2nc(N3CCOCC3)c3ccccc3c2=O)cc1OC [Example 172, 2-(3,4-dimethoxyphenyl)-N-[4-(morpholin-4-yl)-1-oxophthalazin-2(1H)-yl]acetamide]",51.7,–
"O=C(Cc1ccc(Cl)c(Cl)c1)Nn1nc(N2CCOCC2)c2ccccc2c1=O [Example 177, 2-(3,4-dichlorophenyl)-N-[4-(morpholin-4-yl)-1-oxophthalazin-2(1H)-yl]acetamide]",131,6.20
"O=C(Cc1cc(F)cc(F)c1)Nn1nc(C2=CCOCC2)c2ccccc2c1=O [Example 7, 2-(3,5-difluorophenyl)-N-[4-(3,6-dihydro-2H-pyran-4-yl)-1-oxophthalazin-2(1H)-yl]acetamide]",140,5.50
"O=C(CC1CC2CCC1C2)Nn1nc(C(=NO)c2ccccc2)c2ccccc2c1=O (racemic) [Example 120, (±)-2-[(exo)-bicyclo[2.2.1]hept-2-yl]-N-{4-[(Z)-(hydroxyimino)(phenyl)methyl]-1-oxophthalazin-2(1H)-yl}acetamide]",136,5.50
"O=C(Cc1cccc(C(F)(F)F)c1)Nn1nc(N2CCOCC2)c2ccccc2c1=O [Example 160, N-[4-(morpholin-4-yl)-1-oxophthalazin-2(1H)-yl]-2-[3-(trifluoromethyl)phenyl]acetamide]",62.1,5.01
"CN(Cc1ccccc1)c1nn(NC(=O)Cc2ccc(Cl)cc2)c(=O)c2ccccc12 [Example 36, N-{4-[benzyl(methyl)amino]-1-oxophthalazin-2(1H)-yl}-2-(4-chlorophenyl)acetamide]",105,6.66
"O=C(Cc1ccc(F)cc1)Nn1nc(N2CCOCC2)c2ccccc2c1=O [Example 150, 2-(4-fluorophenyl)-N-[4-(morpholin-4-yl)-1-oxophthalazin-2(1H)-yl]acetamide]",71.7,4.89
